For series [1], the system named is C[C@@H]1O[C@@H]1P(=O)(O)O. The series is described as follows: purified protein. The class given is biochemical, Klebsiella pneumoniae. The conditions noted are these: free enzyme, 15 mM GSH, 0.1 M sodium phosphate pH 8, 100 mM KCl, 0.05 mM MnCl2, 25 °C, also bound in active site of crystal structure.
The target in another series is T1, FosAPA (Pseudomonas aeruginosa, UniProt Q9I4K6).
T1 construct: gene fosA
The series is described as follows: DTNB ([…] nm) assay of GSH conjugation, time course. The class given is biochemical. The conditions noted are these: 10 mM Fos, 15 mM GSH, 0.1 M sodium phosphate pH 8, 100 mM KCl, 0.05 mM MnCl2, 25 °C.

The next series deals with T2, FosAKP (Klebsiella pneumoniae, UniProt A0A086IRG1).
T2 construct: gene fosA
T2 sequence (A0A086IRG1 entry or part of it): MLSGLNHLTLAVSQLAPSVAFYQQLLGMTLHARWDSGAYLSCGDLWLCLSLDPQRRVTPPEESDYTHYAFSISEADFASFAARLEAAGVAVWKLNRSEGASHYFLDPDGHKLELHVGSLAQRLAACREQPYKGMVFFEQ
Briefly: DTNB ([…] nm) activity assay; crystal structure of complex ([…] Å). The class given is biochemical. The conditions noted are these: read-out: % inhibition at 5 mM.

T1 sequence (Q9I4K6 whole entry): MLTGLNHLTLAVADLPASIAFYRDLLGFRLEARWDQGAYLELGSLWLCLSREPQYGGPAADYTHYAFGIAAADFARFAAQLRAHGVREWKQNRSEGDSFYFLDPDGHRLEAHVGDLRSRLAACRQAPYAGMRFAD

Turning to FosAKP (Klebsiella pneumoniae), the Km in series [1] is 2200 ± 300 µM. On to `C[C@@H]1O[C@@H]1P(=O)(O)O` [Fosfomycin, (1R,2S)-epoxypropylphosphonic acid], for which, at FosAPA, the “DTNB (412 nm) assay of GSH conjugation, time course” value is “time course of Fos conjugation with GSH, catalyzed by FosAPA and FosAKP”.

For the molecule `O=C(O)C(O)C(O)C(=O)O` (stereo not drawn) [Tar], the inhibition at 5000 µM on FosAKP amounted to 20.7%.

The term Km denotes the substrate concentration at which the rate is half of its maximum. Broadly, the inhibition is how much of the control response was suppressed.

These data come from PMC10779102, “Structural Studies of Klebsiella pneumoniae Fosfomycin-Resistance Protein and Its Application for the Development of an Optical Biosensor for Fosfomycin Determination” (International Journal of Molecular Sciences, 2023).
